In patent publication US11365220B2, “Methods of making anti-GP41 antibody-specific capture agents” (California Institute of Technology, priority 2013, dated 2022):

Tested on: 4B3
Settings: stored under N2 at 25° C., 37° C., or 57° C. for 58 days; 10 nM 4B3 spiked in 1% v/v human serum
Protocol: Small amounts of (iii) were stored under N2 at 25° C., 37° C., or 57° C. for 58 days. […] The remaining samples were lyophilized and used in a single point sandwich ELISA. Streptavidin-coated 96-well plates were saturated with the samples of (iii) recovered from the storage experiments using 1 μM solutions in TBS. The plates were blocked with 5% w/v dry milk in TBS, then incubated with either 1% v/v human serum or 10 nM 4B3 spiked in 1% v/v human serum in 0.5% w/v dry milk in TBS at room temperature for 1 hr. Bound antibody was probed with HPR-conjugated mouse monoclonal antibody to human IgG Fc diluted 1:15,000 in 0.5% w/v dry milk in TBS. The colorimetric assay was developed with TMB substrate, then quenched with 1 M H2SO4 and read at 450 nm.

Biotin-PEG5-IWCGSGKLICTTA-Pra-(TZ-Az4-eihny-CONH2)-ICTTA-CONH2 [(iii)]
ELISA performance after storage: no detectable loss of performance
